Data from ChEMBL document CHEMBL1201862, “PubChem BioAssay data set” (2004).
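Five compound concentrations were applied to cells in 96-well plates for 48 hours; endpoints were derived by simple linear interpolation of the resulting dose-response curve. GI50 marks 50% less growth.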 Activity calls are given as the source filed them. Rule as the data show it: active = GI50 up to about 1.1 µM and inactive = higher.

How the values were obtained:
Assay in all cases: NCI anticancer screen, dose series, 48 h
786-0 = test system: 786-0
A498 = test system: A498
ACHN = test system: ACHN
BT-549 = test system: BT-549
HOP-92 = test system: HOP-92
Hs-578T = test system: Hs-578T
K562 = test system: K562
LOX IMVI = test system: LOX IMVI
NCI-H23 = test system: NCI-H23
NCI-H460 = test system: NCI-H460
NCI-H522 = test system: NCI-H522
OVCAR-3 = test system: OVCAR-3
RXF 393 = test system: RXF 393
SF-268 = test system: SF-268
SK-MEL-5 = test system: SK-MEL-5
SR = test system: SR
SW-620 = test system: SW-620
UACC-257 = test system: UACC-257
UACC-62 = test system: UACC-62
UO-31 = test system: UO-31

Measured: GI50

S=C1NCN2CCN(CC2)CNC(=S)C(=S)NCN2CCN(CC2)CNC1=S
inactive: 786-0 45.1 µM | A498 > 100 µM | ACHN 72.1 µM | BT-549 59 µM | HOP-92 62.1 µM | Hs-578T 54.1 µM | K562 27.3 µM | LOX IMVI 22.3 µM | NCI-H23 43 µM | NCI-H460 20.7 µM | NCI-H522 31 µM | OVCAR-3 22 µM | RXF 393 56 µM | SF-268 61.2 µM | SK-MEL-5 39.5 µM | SR 58.9 µM | SW-620 30.4 µM | UACC-257 42.7 µM | UACC-62 67.8 µM | UO-31 25.6 µM

O=C(O)c1ccc(CNCc2ccccc2)cc1
inactive: 786-0 > 100 µM | A498 > 100 µM | ACHN > 100 µM | BT-549 > 100 µM | HOP-92 > 100 µM | Hs-578T > 100 µM | K562 > 100 µM | LOX IMVI > 100 µM | NCI-H23 > 100 µM | NCI-H460 > 100 µM | NCI-H522 > 100 µM | OVCAR-3 > 100 µM | RXF 393 > 100 µM | SF-268 > 100 µM | SK-MEL-5 > 100 µM | SR > 100 µM | SW-620 > 100 µM | UACC-257 > 100 µM | UACC-62 > 100 µM | UO-31 > 100 µM

Cc1cc(=O)n2nc(CSc3nnc(Sc4cc(O)ccc4O)s3)sc2n1
inactive: 786-0 41.3 µM | A498 > 100 µM | ACHN > 100 µM | BT-549 39.3 µM | HOP-92 35.4 µM | Hs-578T 44.9 µM | K562 21.5 µM | LOX IMVI 21.7 µM | NCI-H23 > 100 µM | NCI-H460 > 100 µM | NCI-H522 20.4 µM | OVCAR-3 34.4 µM | RXF 393 51.6 µM | SF-268 54.6 µM | SK-MEL-5 64.1 µM | SR 28.3 µM | SW-620 22.8 µM | UACC-257 > 100 µM | UACC-62 50 µM | UO-31 > 100 µM

Cc1ccc(-n2cc(-c3ccc(Cl)cc3)c(C#N)c2N)cc1
inactive: 786-0 15.3 µM | A498 18.4 µM | ACHN 18.7 µM | BT-549 18.2 µM | HOP-92 17 µM | Hs-578T 2.38 µM | K562 16.6 µM | LOX IMVI 15 µM | NCI-H23 15.7 µM | NCI-H460 15.1 µM | NCI-H522 12.1 µM | OVCAR-3 15.6 µM | RXF 393 10.5 µM | SF-268 18.7 µM | SK-MEL-5 16.1 µM | SR 6.67 µM | SW-620 13.2 µM | UACC-257 14.8 µM | UACC-62 15.1 µM | UO-31 13.2 µM

Cc1cc2c(cc1-c1cc3c(cc1C)C(C(C)C)=C(O)C(=O)/C3=C\NCC1CCCN3CCCCC13)/C(=C/NCC1CCCN3CCCCC13)C(=O)C(O)=C2C(C)C (stereo not given)
inactive: 786-0 3.02 µM | A498 23.1 µM | ACHN 3.81 µM | BT-549 15.9 µM | HOP-92 15.8 µM | Hs-578T 10.2 µM | K562 12.2 µM | LOX IMVI 3.35 µM | NCI-H23 6.27 µM | NCI-H460 5.14 µM | NCI-H522 2.84 µM | OVCAR-3 3.01 µM | RXF 393 5.93 µM | SF-268 3.85 µM | SK-MEL-5 6.75 µM | SR 26.2 µM | SW-620 5.48 µM | UACC-257 15.3 µM | UACC-62 7.78 µM | UO-31 3.43 µM
